Patent US20240101540A1, “TARGETED PROTEIN DEGRADATION OF PARP14 FOR USE IN THERAPY” (Ribon Therapeutics, Inc., priority 2022, published 2024)
Counter-ions that a name gives are not always drawn.

What was measured:
[1] = biological target: T1, catalytic domain of human PARP14 (residues 1611 to 1801) with NanoLuc tag (Homo sapiens, UniProt Q460N5); assay: NanoLuc assay for the degradation of PARP14 (NanoLuc-tagged PARP14 overexpressed in HEK-293T cells, 2 hours); type: cell-based; settings: Assay A (Example A): NanoLuc-tagged PARP14 degradation in HEK-293T cells, read-out: DC50
T1 construct: expressed in transfected cells; host or cells: HEK-293T cells (ATCC), pcDNA3.1(-) vector
T1 sequence (Q460N5 1611-1801): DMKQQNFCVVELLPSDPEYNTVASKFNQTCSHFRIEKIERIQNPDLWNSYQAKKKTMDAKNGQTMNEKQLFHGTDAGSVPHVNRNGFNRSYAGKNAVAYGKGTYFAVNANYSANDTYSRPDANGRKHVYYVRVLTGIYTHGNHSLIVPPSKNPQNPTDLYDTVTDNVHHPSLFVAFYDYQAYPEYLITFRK
Description: The insert also contained a NanoLuc tag on the N terminus of the PARP14 protein.
Degradation of PARP14 protein was assessed using measurement of the NanoLuc tag as proxy for the PARP14 protein. […] Plasmid DNA was diluted in empty vector DNA then added to 1.163 mL of phenol red free OptiMEM (Thermo Fisher). Plasmid DNA concentrations used in each assay described in Table 1. The plasmid DNA was mixed with 78.5 μL of Fugene HD (Promega) and allowed to incubate 5 minutes.
The transfection was incubated for 24 hrs at 37 degrees in an incubator supplemented with 5% CO2. The cells were then trypsinized and brought up in phenol red free OptiMEM media. […] 40 nL of a dose response curve diluted in DMSO of each test compound was added to the cell plate using a Mosquito (TTP Labtech) and the plate was incubated at 37° C. for 2 hours. Assay plate was brought to room temperature then 20 μL per well of NanoGlo (Promega) was added to the plate. Luminescence was measured on an Envision (Perkin Elmer).
The average DMSO was calculated from 32 wells containing 0.1% DMSO only in columns 12 and 24 of the assay plate. The % of DMSO values were calculated as described below: […]
The % of DMSO values were plotted as a function of compound concentration and the following 4-parameter fit was applied to derive the DC50 values:
where top, bottom, and Hill Coefficient are allowed to float. Y is the % of DMSO and X is the compound concentration
DC50 data for the Example compounds is provided below in Table 2 (“+” is <0.1 μM; “++” is ≥0.1 μM and <1 μM; and “+++” is ≥1 μM).

HiBiT tagged PARP14 = biological target: T2, HiBiT tagged PARP14 (Homo sapiens, UniProt Q460N5); assay: HiBiT assay for the degradation of PARP14 (HiBiT tagged PARP14 in LgBiT expressing Jurkat cells, 2 or 24 hours); type: cell-based; settings: Assay B (Example B): HiBiT tagged PARP14 degradation in LgBiT expressing Jurkat cells, read-out: DC50
T2 construct: engineered to contain a HiBiT tag on both alleles of the PARP14 gene; endogenous in cells; host or cells: Jurkat cells stably transfected with LgBiT (Promega), PARP14 locus edited by CRISPR/Cas9
T2 sequence (Q460N5 whole entry): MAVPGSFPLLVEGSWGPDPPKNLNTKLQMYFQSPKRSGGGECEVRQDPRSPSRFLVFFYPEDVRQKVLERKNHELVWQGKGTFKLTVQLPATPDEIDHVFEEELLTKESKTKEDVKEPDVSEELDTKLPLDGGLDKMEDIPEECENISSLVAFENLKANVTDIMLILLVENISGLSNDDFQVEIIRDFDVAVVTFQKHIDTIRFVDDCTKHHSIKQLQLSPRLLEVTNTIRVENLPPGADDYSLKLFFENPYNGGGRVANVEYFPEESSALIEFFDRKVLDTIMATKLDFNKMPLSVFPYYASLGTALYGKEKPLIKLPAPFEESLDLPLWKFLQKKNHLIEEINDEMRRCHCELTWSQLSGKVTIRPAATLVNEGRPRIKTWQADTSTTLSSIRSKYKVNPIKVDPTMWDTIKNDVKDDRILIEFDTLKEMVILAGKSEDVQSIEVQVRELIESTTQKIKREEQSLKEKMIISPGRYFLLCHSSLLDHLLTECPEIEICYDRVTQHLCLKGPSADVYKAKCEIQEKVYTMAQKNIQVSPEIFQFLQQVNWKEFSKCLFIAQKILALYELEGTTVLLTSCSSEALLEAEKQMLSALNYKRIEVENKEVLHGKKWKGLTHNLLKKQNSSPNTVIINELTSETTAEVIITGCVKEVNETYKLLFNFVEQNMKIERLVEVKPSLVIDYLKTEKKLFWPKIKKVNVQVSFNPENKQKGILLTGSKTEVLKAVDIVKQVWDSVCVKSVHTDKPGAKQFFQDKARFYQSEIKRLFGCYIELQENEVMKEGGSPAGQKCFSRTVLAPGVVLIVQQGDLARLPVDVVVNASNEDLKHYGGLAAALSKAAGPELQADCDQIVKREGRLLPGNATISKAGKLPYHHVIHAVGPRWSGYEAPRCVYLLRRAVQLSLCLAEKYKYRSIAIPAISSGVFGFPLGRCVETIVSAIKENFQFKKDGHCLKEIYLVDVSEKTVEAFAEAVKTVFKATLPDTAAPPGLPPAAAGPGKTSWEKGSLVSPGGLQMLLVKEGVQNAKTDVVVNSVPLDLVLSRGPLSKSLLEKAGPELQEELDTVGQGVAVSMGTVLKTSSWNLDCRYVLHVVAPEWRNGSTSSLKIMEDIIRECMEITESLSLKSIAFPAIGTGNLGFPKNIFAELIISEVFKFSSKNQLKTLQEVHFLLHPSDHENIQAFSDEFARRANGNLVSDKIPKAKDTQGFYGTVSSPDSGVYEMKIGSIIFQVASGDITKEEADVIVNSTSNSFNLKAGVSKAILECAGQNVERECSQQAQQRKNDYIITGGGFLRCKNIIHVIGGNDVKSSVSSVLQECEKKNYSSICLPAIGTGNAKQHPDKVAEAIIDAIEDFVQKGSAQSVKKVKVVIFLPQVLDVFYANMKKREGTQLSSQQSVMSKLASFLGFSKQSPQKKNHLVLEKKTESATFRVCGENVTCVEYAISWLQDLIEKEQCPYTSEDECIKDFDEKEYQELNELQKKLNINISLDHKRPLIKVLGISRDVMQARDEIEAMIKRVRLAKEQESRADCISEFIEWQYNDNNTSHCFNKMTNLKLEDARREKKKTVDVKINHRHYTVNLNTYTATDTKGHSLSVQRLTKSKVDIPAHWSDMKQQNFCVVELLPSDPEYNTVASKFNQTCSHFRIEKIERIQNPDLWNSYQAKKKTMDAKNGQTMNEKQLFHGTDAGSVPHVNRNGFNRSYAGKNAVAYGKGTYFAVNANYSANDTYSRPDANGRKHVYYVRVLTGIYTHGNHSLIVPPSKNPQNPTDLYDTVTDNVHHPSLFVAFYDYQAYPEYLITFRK
Procedure, shortened: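 Jurkat cells stably expressing LgBiT with CRISPR knock-in of C-terminal HiBiT on both PARP14 alleles, 5,000 cells/well, treated with compound dose-response at 37 °C for 2 or 24 h. Live Cell Substrate luminescence normalised to 0.1% DMSO wells; DC50 from 4-parameter fit with floating top, bottom, Hill.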

Row | DC50 [1] [nM] | DC50 (HiBiT tagged PARP14) [nM] | SMILES
1 | < 100 |  | O=C1CC[C@H](Nc2ccc(N3CCN(CCN4CCC(COc5cc(F)c6c(=O)[nH]c(CSC7CCOCC7)nc6c5)CC4)CC3)cc2)C(=O)N1 (single isomer, unassigned) [Example 48a]
2 | < 100 |  | O=C1CC[C@@H](Nc2ccc(N3CCN(CCN4CCC(COc5cc(F)c6c(=O)[nH]c(CSC7CCOCC7)nc6c5)CC4)CC3)cc2)C(=O)N1 (single isomer, unassigned) [Example 48b]
3 | < 100 |  | O=C(CN1CCC(COc2cc(F)c3c(=O)[nH]c(CSC4CCOCC4)nc3c2)CC1)NCCCCCCNc1cccc2c1C(=O)N(C1CCC(=O)NC1=O)C2=O (centres unmarked) [Example 1, N-(6-((2-(2,6-dioxopiperidin-3-yl)-1,3-dioxoisoindolin-4-yl)amino)hexyl)-2-(4-(((5-fluoro-4-oxo-2-(((tetrahydro-2H-pyran-4-yl)thio)methyl)-3,4-dihydroquinazolin-7-yl)oxy)methyl)piperidin-1-yl)acetamide]
4 | < 100 |  | O=C(CN1CCC(COc2cc(F)c3c(=O)[nH]c(CSC4CCOCC4)nc3c2)CC1)NCCNc1cccc2c1C(=O)N(C1CCC(=O)NC1=O)C2=O (centres unmarked) [Example 2, N-(2-((2-(2,6-dioxopiperidin-3-yl)-1,3-dioxoisoindolin-4-yl)amino)ethyl)-2-(4-(((5-fluoro-4-oxo-2-(((tetrahydro-2H-pyran-4-yl)thio)methyl)-3,4-dihydroquinazolin-7-yl)oxy)methyl)piperidin-1-yl)acetamide]
5 |  | < 30 | O=C1CCC(Nc2ccc(N3CC4(CC(CN5CCC(COc6cc(F)c7c(=O)[nH]c(CSC8CCOCC8)nc7c6)CC5)C4)C3)c(F)c2)C(=O)N1 (centres unmarked) [Example 227, 3-((3-fluoro-4-(6-((4-(((5-fluoro-4-oxo-2-(((tetrahydro-2H-pyran-4-yl)thio)methyl)-3,4-dihydroquinazolin-7-yl)oxy)methyl)piperidin-1-yl)methyl)-2-azaspiro[3.3]heptan-2-yl)phenyl)amino)piperidine-2,6-dione formate]
6 |  | < 30 | O=C1CCC(Nc2ccc(N3CCC(N4CCC(N5CCC(COc6cc(F)c7c(=O)[nH]c(CSC8CCOCC8)nc7c6)CC5)CC4)CC3)c(F)c2)C(=O)N1 (centres unmarked) [Example 228, 3-((3-fluoro-4-(4-(((5-fluoro-4-oxo-2-(((tetrahydro-2H-pyran-4-yl)thio)methyl)-3,4-dihydroquinazolin-7-yl)oxy)methyl)-[1,4′:1′,4″-terpiperidin]-1″-yl)phenyl)amino)piperidine-2,6-dione diformate]
7 |  | < 30 | COc1cc(N2CCC(CN3CCC(COc4cc(F)c5c(=O)[nH]c(CSC6CCOCC6)nc5c4)CC3)CC2)c(F)cc1NC1CCC(=O)NC1=O (centres unmarked) [Example 229, 3-((5-fluoro-4-(4-((4-(((5-fluoro-4-oxo-2-(((tetrahydro-2H-pyran-4-yl)thio)methyl)-3,4-dihydroquinazolin-7-yl)oxy)methyl)piperidin-1-yl)methyl)piperidin-1-yl)-2-methoxyphenyl)amino)piperidine-2,6-dione]
8 |  | < 30 | O=C1CCC(Nc2ccc(N3CCC(N4CC(N5CCC(COc6cc(F)c7c(=O)[nH]c(CSC8CCOCC8)nc7c6)CC5)C4)CC3)c(C(F)(F)F)c2)C(=O)N1 (centres unmarked) [Example 230, 3-((4-(4-(3-(4-(((5-fluoro-4-oxo-2-(((tetrahydro-2H-pyran-4-yl)thio)methyl)-3,4-dihydroquinazolin-7-yl)oxy)methyl)piperidin-1-yl)azetidin-1-yl)piperidin-1-yl)-3-(trifluoromethyl)phenyl)amino)piperidine-2,6-dione]
9 |  | < 30 | O=C1CCC(Nc2ccc(N3CCC(CN4CCC(N5CCC(COc6cc(F)c7c(=O)[nH]c(CSC8CCOCC8)nc7c6)CC5)CC4)CC3)c(F)c2)C(=O)N1 (centres unmarked) [Example 231, 3-((3-fluoro-4-(4-((4-(((5-fluoro-4-oxo-2-(((tetrahydro-2H-pyran-4-yl)thio)methyl)-3,4-dihydroquinazolin-7-yl)oxy)methyl)-[1,4′-bipiperidin]-1′-yl)methyl)piperidin-1-yl)phenyl)amino)piperidine-2,6-dione]
10 |  | < 30 | O=C1CCC(Nc2ccc(N3CCC(N4CC(CN5CCC(COc6cc(F)c7c(=O)[nH]c(CSC8CCOCC8)nc7c6)CC5)C4)CC3)c(F)c2)C(=O)N1 (centres unmarked) [Example 232, 3-((3-fluoro-4-(4-(3-((4-(((5-fluoro-4-oxo-2-(((tetrahydro-2H-pyran-4-yl)thio)methyl)-3,4-dihydroquinazolin-7-yl)oxy)methyl)piperidin-1-yl)methyl)azetidin-1-yl)piperidin-1-yl)phenyl)amino)piperidine-2,6-dione]
11 |  | < 30 | O=C1CCC(Nc2ccc(N3CCC(N4CC(N5CCC(COc6ccc7c(=O)[nH]c(CSC8CCOCC8)nc7c6)CC5)C4)CC3)c(F)c2)C(=O)N1 (centres unmarked) [Example 233, 3-((3-fluoro-4-(4-(3-(4-(((4-oxo-2-(((tetrahydro-2H-pyran-4-yl)thio)methyl)-3,4-dihydroquinazolin-7-yl)oxy)methyl)piperidin-1-yl)azetidin-1-yl)piperidin-1-yl)phenyl)amino)piperidine-2,6-dione]
12 |  | < 30 | O=C1CCC(Nc2ccc(N3CCN(CCN4CCC(COc5cc(F)c6c(=O)[nH]c(CSC7CCOCC7)nc6c5)CC4)C(=O)C3)c(F)c2)C(=O)N1 (centres unmarked) [Example 234, 3-((3-fluoro-4-(4-(2-(4-(((5-fluoro-4-oxo-2-(((tetrahydro-2H-pyran-4-yl)thio)methyl)-3,4-dihydroquinazolin-7-yl)oxy)methyl)piperidin-1-yl)ethyl)-3-oxopiperazin-1-yl)phenyl)amino)piperidine-2,6-dione]
13 |  | < 30 | O=C1CCC(Nc2ccc(N3CCC(N4CC(N5CCC(CCOc6cc(F)c7c(=O)[nH]c(CSC8CCOCC8)nc7c6)CC5)C4)CC3)c(F)c2)C(=O)N1 (centres unmarked) [Example 235, 3-((3-fluoro-4-(4-(3-(4-(2-((5-fluoro-4-oxo-2-(((tetrahydro-2H-pyran-4-yl)thio)methyl)-3,4-dihydroquinazolin-7-yl)oxy)ethyl)piperidin-1-yl)azetidin-1-yl)piperidin-1-yl)phenyl)amino)piperidine-2,6-dione]
14 |  | < 30 | O=C1CCC(Nc2ccc(F)c(N3CCC(N4CC(N5CCC(COc6cc(F)c7c(=O)[nH]c(CSC8CCOCC8)nc7c6)CC5)C4)CC3)c2)C(=O)N1 (centres unmarked) [Example 236, 3-((4-fluoro-3-(4-(3-(4-(((5-fluoro-4-oxo-2-(((tetrahydro-2H-pyran-4-yl)thio)methyl)-3,4-dihydroquinazolin-7-yl)oxy)methyl)piperidin-1-yl)azetidin-1-yl)piperidin-1-yl)phenyl)amino)piperidine-2,6-dione]
15 |  | < 30 | O=C1CCC(Nc2ccc(N3CCC(N4CC(N5CCC(COc6cc(F)c7c(=O)[nH]c(CSC8CCCCC8)nc7c6)CC5)C4)CC3)c(F)c2)C(=O)N1 (centres unmarked) [Example 237, 3-({4-[4-(3-{4-[({2-[(cyclohexylsulfanyl)methyl]-5-fluoro-4-oxo-3H-quinazolin-7-yl}oxy)methyl]piperidin-1-yl}azetidin-1-yl)piperidin-1-yl]-3-fluorophenyl}amino)piperidine-2,6-dione formate]

Row | SMILES | DC50 [1] [nM] | DC50 (HiBiT tagged PARP14) [nM]
16 | O=C1CCC(N2C(=O)c3cccc(OC4CC(CN5CCC(COc6cc(F)c7c(=O)[nH]c(CSC8CCOCC8)nc7c6)CC5)C4)c3C2=O)C(=O)N1 (single isomer, unassigned) [Example 80a, 2-(2,6-dioxopiperidin-3-yl)-4-((1r,3r)-3-((4-(((5-fluoro-4-oxo-2-(((tetrahydro-2H-pyran-4-yl)thio)methyl)-3,4-dihydroquinazolin-7-yl)oxy)methyl)piperidin-1-yl)methyl)cyclobutoxy)isoindoline-1,3-dione] | < 100 | 
17 | O=C1CCC(N2C(=O)c3cccc(OC4CC(CN5CCC(COc6cc(F)c7c(=O)[nH]c(CSC8CCOCC8)nc7c6)CC5)C4)c3C2=O)C(=O)N1 (single isomer, unassigned) [Example 80b, 2-(2,6-dioxopiperidin-3-yl)-4-((1s,3s)-3-((4-(((5-fluoro-4-oxo-2-(((tetrahydro-2H-pyran-4-yl)thio)methyl)-3,4-dihydroquinazolin-7-yl)oxy)methyl)piperidin-1-yl)methyl)cyclobutoxy)isoindoline-1,3-dione] | < 100 | 
